Laboratory results published in the supplement of paper PMC10307832.

What was measured:
Assay in all cases: relative viability (nuclei count vs DMSO), 5 days (fraction); higher = more cells survive
Silmitasertib = compound: O=C(O)c1ccc2c(c1)nc(Nc1cccc(Cl)c1)c1ccncc12 [Silmitasertib]
Procedure, shortened: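 In 1536-well plates, lung cancer cell lines rested overnight at 37 °C before five library-drug doses (not always all listed), √10 apart, were pinned onto vehicle-anchored plates. Nuclei were counted with MetaXpress from 4× Hoechst images taken after 5 days without medium change. Viability compares treated-well with vehicle-well nuclei as a median over plates, and plates needed control CV below 25% plus at least one doubling to pass.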

[1] = compound: O=C(O)c1ccc2c(c1)nc(Nc1cccc(Cl)c1)c1ccncc12 [Silmitasertib] + C[C@@H](Oc1cc(-c2cnn(C3CCNCC3)c2)cnc1N)c1c(Cl)ccc(F)c1Cl [Crizotinib] (partner 1 µM)
Procedure, shortened: (§1)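 Values are medians from duplicate plates. Each reflects relative viability, defined as the nuclei count of treated wells over that of vehicle wells. Lung cancer cell lines in 1536-well plates were pin-tool dosed one day after seeding with one drug alone or with a fixed anchor-drug dose plus five library-drug doses (not always all listed) in √10 steps, then fixed, stained and imaged at 4× after 5 days.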

[2] = compound: O=C(O)c1ccc2c(c1)nc(Nc1cccc(Cl)c1)c1ccncc12 [Silmitasertib] + C[C@]1(O)C[C@@H](c2nc(-c3ccc4ccc(-c5ccccc5)nc4c3)c3c(N)nccn32)C1 [Linsitinib] (partner 1 µM)
Procedure, shortened: as §1

[3] = compound: O=C(O)c1ccc2c(c1)nc(Nc1cccc(Cl)c1)c1ccncc12 [Silmitasertib] + O=C(CCCCCCC(=O)Nc1ccccc1)NO [Vorinostat] (partner 1 µM)
Procedure, shortened: as §1

[4] = compound: O=C(O)c1ccc2c(c1)nc(Nc1cccc(Cl)c1)c1ccncc12 [Silmitasertib] + CCNC(=O)c1noc(-c2cc(C(C)C)c(O)cc2O)c1-c1ccc(CN2CCOCC2)cc1 [Luminespib] (partner 0.01 µM)
Procedure, shortened: as §1

Cell Line | relative viability (Silmitasertib; 0.04 µM) | relative viability (Silmitasertib; 0.4 µM) | relative viability (Silmitasertib; 1.265 µM) | relative viability (Silmitasertib; 4 µM) | relative viability ([1]; first compound 0.04 µM) | relative viability ([1]; first compound 1.265 µM) | relative viability ([1]; first compound 4 µM) | relative viability ([2]; first compound 0.04 µM) | relative viability ([2]; first compound 1.265 µM) | relative viability ([2]; first compound 4 µM) | relative viability ([3]; first compound 0.04 µM) | relative viability ([3]; first compound 0.4 µM) | relative viability ([3]; first compound 1.265 µM) | relative viability ([3]; first compound 4 µM) | relative viability ([4]; first compound 0.04 µM) | relative viability ([4]; first compound 1.265 µM) | relative viability ([4]; first compound 4 µM) | relative viability ([1]; first compound 0.4 µM) | relative viability ([2]; first compound 0.4 µM) | relative viability ([4]; first compound 0.4 µM)
HCC-366 | 0.993 | 0.794 | 0.923 | 0.136 | 0.581 | 0.472 | 0.395 | 0.869 | 0.366 | 0.379 | 0.396 | 0.221 | 0.413 | 0.0566 | – | – | – | – | – | –
HCC-827 | 1.09 | – | 1.14 | 0.996 | 0.993 | 0.952 | 1.01 | 0.967 | 1.18 | 1.18 | 0.861 | – | 0.241 | 0.555 | 0.616 | 0.524 | 0.355 | – | – | –
HOP-62 | 1.09 | – | 1.12 | 0.542 | 0.914 | 0.943 | 0.49 | 0.973 | 0.998 | 0.703 | 0.779 | – | 0.584 | 0.388 | 0.954 | 1.04 | 0.969 | – | – | –
IA-LM | 1.03 | 0.749 | 1.08 | 0.409 | 0.792 | 0.916 | 0.659 | 0.657 | 0.717 | 0.236 | 1.05 | – | 1.21 | 0.538 | – | – | – | 0.725 | 0.559 | –
LC-2-ad | 1.13 | 0.828 | 0.976 | 0.523 | 0.421 | 0.37 | 0.417 | 0.731 | 0.836 | 0.918 | 0.712 | 0.573 | 0.753 | 0.3 | 1.22 | 1.21 | 1.09 | 0.423 | 0.881 | 1.03
LCLC-97TM1 | 1.1 | – | 0.882 | 0.403 | 0.593 | 0.339 | 0.141 | 0.178 | 0.172 | 0.14 | 0.605 | – | 0.654 | 0.119 | 0.892 | 0.691 | 0.442 | – | – | –
LCLC-103H | 0.986 | 0.99 | 0.945 | 0.628 | 1.03 | 1 | 0.713 | 1.09 | 1.04 | 0.796 | 0.823 | 0.693 | 0.774 | 0.428 | 0.909 | 0.751 | 0.548 | 1.06 | 1.19 | 0.707
LK-2 | 1.04 | 0.727 | 1.03 | 0.943 | 0.198 | 0.245 | 0.187 | 0.557 | 0.365 | 0.451 | 0.296 | – | 0.404 | 0.18 | 0.168 | 0.174 | 0.169 | 0.333 | 0.474 | –
LOU-NH91 | 1.12 | 0.917 | 0.806 | 0.582 | 0.755 | 0.676 | 0.683 | 1.11 | 0.796 | 0.754 | 1.06 | 0.874 | 0.784 | 0.514 | 0.355 | 0.264 | 0.248 | 0.585 | 0.859 | 0.301
